Results on 16 compounds are retold here after ChEMBL document CHEMBL5257069, “Structure-activity relationship analysis of activity-based probes targeting HTRA family of serine proteases” (Bioorg Med Chem Lett, 2023).

Activity calls are given as the source filed them. The rule behind the calls is not given here.

For series [1], the target named is T1, Serine protease HTRA2, mitochondrial (Homo sapiens) (UniProt O43464).
T1 sequence (whole entry): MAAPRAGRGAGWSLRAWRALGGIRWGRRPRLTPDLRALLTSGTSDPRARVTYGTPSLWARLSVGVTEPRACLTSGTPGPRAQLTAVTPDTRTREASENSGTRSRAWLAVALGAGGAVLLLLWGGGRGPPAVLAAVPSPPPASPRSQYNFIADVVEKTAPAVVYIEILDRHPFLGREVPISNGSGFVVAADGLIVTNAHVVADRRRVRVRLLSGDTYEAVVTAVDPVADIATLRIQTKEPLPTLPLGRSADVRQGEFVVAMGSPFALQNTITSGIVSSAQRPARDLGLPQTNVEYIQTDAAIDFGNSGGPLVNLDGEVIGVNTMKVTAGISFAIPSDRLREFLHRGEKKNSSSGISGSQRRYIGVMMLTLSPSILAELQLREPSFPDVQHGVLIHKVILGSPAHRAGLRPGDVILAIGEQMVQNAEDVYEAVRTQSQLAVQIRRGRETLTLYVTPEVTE
Briefly: Binding affinity to recombinant human HTRA2 assessed as increase in fluorescence using H2-OPT as substrate at 1 uM by SDS-PAGE based gel fluorescence scanning analysis.

Series [2] has as its target T2, Periplasmic serine endoprotease DegP (Escherichia coli (strain K12)) (UniProt P0C0V0).
T2 sequence (whole entry): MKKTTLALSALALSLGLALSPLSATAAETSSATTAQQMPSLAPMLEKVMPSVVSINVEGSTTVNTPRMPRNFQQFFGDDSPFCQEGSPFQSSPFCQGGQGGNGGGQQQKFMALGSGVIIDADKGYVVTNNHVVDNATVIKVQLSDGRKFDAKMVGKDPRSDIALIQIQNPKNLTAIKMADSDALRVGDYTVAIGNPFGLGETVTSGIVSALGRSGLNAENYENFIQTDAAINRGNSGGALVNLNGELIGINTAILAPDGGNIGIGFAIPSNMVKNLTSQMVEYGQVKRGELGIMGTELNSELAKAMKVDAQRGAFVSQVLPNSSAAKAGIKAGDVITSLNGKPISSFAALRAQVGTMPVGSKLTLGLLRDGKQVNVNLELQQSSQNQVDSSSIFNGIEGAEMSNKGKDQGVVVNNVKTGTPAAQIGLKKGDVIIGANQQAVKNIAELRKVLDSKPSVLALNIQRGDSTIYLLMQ
Briefly: Binding affinity to recombinant Escherichia coli DegP assessed as increase in fluorescence using H2-OPT as substrate at 1 uM by SDS-PAGE based gel fluorescence scanning analysis.

Series [3] has as its target T3, Serine protease HTRA2, mitochondrial (Homo sapiens, UniProt O43464).
T3 sequence (O43464 whole entry): T1 sequence (whole entry)
Description: Inhibition of recombinant human HTRA2 using H2-OPT as substrate assessed as increase in fluorescence and measured for 2 hrs by fluorescent plate reader analysis.

The target in series [4] is T2, Periplasmic serine endoprotease DegP (Escherichia coli (strain K12)). Briefly: Binding affinity to Escherichia coli DegP assessed as appearance of fluorescent bands at 10 uM incubated for 2 hrs by SDS-PAGE based gel fluorescence scanning analysis.
The target is the same in series [5]. Briefly: Binding affinity to Escherichia coli DegP assessed as appearance of fluorescent bands at 1 to 50 uM incubated for 1 hrs by SDS-PAGE based gel fluorescence scanning analysis. The note with it: dose 1-50 µM.
For series [6], the target named is T4, Neutrophil elastase (Homo sapiens) (UniProt P08246).
T4 sequence (whole entry): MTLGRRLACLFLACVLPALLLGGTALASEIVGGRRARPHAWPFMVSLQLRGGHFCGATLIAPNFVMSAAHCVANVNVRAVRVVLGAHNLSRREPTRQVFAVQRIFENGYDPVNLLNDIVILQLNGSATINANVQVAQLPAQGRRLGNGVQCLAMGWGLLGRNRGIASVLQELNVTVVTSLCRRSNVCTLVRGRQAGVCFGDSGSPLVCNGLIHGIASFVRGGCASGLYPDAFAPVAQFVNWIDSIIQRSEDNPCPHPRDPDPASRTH
Description: Binding affinity to recombinant human neutrophil elastase assessed as increase in fluorescence using H2-OPT as substrate at 1 uM by SDS-PAGE based gel fluorescence scanning analysis. The series is classed as single protein.

The target of series [7] is Chymotrypsin (Homo sapiens) (UniProt Q99895+P17538+P40313+Q6GPI1). Description: Binding affinity to recombinant human chymotrypsin assessed as increase in fluorescence using H2-OPT as substrate at 1 uM by SDS-PAGE based gel fluorescence scanning analysis. The series is classed as protein assay.
Another series deals with Trypsin (Homo sapiens) (UniProt P07477+P07478+P35030). Briefly: Binding affinity to recombinant human trypsin assessed as increase in fluorescence using H2-OPT as substrate at 1 uM by SDS-PAGE based gel fluorescence scanning analysis. The series is classed as protein assay.
Series [8] concerns the target Albumin (Bos taurus, UniProt P02769). Description: Binding affinity to bovine serum albumin in human U-87 MG cell culture media assessed as appearance of fluorescent bands at 5 uM by SDS-PAGE based In-gel fluorescence analysis. The note with it: cattle.
For series [9], the target named is T5, Serine protease HTRA1 (Homo sapiens, UniProt Q92743). Description: Inhibition of recombinant human HTRA1 using H2-OPT as substrate assessed as increase in fluorescence and measured for 2 hrs by fluorescent plate reader analysis.
For series [10], the target named is T5, Serine protease HTRA1. Briefly: Binding affinity to human HTRA1 in human U-87 MG cells assessed as appearance of fluorescent bands at 5 uM by SDS-PAGE based In-gel fluorescence analysis. Format: cell-based.
In series [11] the target is T5, Serine protease HTRA1. Briefly: Binding affinity to human HTRA1 in Amyloid-beta treated human U-87 MG cells assessed as appearance of fluorescent bands at 5 uM by SDS-PAGE based In-gel fluorescence analysis. The series is classed as cell-based.
The target of series [12] is Albumin (Homo sapiens, UniProt P02768). Briefly: Binding affinity to human serum albumin assessed as appearance of fluorescent bands at 2 uM by SDS-PAGE based In-gel fluorescence analysis.
The target in series [13] is T5, Serine protease HTRA1. Briefly: Binding affinity to recombinant human HTRA1 in human serum assessed as appearance of fluorescent bands at 2 uM by In-gel fluorescence analysis. Format: cell-free.
Series [14] has as its target T5, Serine protease HTRA1. Briefly: Inhibition of recombinant human HTRA1 using H2-OPT as substrate assessed as increase in fluorescence at 1 uM and measured for 2 hrs by fluorescent plate reader analysis.
Series [15] concerns the target T1, Serine protease HTRA2, mitochondrial (Homo sapiens). Briefly: Inhibition of recombinant human HTRA2 using H2-OPT as substrate assessed as increase in fluorescence at 1 uM and measured for 2 hrs by fluorescent plate reader analysis.

T5 sequence (Q92743 whole entry): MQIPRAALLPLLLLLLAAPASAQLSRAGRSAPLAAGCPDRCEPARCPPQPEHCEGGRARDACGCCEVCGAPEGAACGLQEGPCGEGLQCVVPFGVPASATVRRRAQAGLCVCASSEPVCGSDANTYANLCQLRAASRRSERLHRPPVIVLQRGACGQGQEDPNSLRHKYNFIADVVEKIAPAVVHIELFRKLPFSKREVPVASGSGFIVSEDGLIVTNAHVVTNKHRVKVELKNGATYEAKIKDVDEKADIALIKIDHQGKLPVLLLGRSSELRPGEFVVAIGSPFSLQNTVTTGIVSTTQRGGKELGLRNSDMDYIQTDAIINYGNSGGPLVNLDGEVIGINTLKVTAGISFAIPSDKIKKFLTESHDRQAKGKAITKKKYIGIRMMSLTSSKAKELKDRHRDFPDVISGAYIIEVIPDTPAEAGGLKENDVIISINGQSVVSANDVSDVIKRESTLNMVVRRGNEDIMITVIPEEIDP
Sequence of Albumin (Homo sapiens, UniProt P02768) (P02768 whole entry): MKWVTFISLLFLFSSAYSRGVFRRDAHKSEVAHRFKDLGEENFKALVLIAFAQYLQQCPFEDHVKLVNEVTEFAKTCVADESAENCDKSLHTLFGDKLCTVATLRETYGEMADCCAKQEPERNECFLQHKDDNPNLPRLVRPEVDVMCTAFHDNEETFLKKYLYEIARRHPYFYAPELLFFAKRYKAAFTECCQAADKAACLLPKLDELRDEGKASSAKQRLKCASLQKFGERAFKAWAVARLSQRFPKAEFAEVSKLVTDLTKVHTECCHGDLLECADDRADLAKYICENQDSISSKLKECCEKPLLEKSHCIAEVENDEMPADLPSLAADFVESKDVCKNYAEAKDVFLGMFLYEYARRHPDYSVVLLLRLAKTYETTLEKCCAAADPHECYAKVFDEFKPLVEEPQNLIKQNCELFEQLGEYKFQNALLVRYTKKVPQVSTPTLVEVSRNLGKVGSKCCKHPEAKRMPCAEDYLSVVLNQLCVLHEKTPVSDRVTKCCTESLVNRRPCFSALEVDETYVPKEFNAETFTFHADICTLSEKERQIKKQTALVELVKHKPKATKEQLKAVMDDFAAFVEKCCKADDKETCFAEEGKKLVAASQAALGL
Sequence of Albumin (Bos taurus, UniProt P02769) (P02769 whole entry): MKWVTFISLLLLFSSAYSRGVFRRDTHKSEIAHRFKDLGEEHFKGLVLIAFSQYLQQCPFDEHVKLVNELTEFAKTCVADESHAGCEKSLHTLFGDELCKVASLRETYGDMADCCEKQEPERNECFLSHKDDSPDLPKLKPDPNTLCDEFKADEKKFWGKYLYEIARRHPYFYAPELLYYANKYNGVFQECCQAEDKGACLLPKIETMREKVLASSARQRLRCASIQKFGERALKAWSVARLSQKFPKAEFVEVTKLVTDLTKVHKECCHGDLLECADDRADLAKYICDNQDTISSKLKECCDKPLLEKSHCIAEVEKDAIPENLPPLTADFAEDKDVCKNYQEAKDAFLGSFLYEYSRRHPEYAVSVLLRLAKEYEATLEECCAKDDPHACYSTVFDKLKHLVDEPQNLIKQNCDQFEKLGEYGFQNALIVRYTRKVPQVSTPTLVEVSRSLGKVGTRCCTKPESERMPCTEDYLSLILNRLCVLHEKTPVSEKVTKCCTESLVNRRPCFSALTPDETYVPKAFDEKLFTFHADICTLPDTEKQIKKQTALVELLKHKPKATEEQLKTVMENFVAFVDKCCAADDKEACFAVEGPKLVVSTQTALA

For the compound `CC(C)C[C@H](NC(=O)CCCCCNC(=O)c1ccc(C(=O)O)c(-c2c3ccc(=O)cc-3oc3cc(O)ccc23)c1)C(=O)N[C@@H](Cc1ccccc1)C(=O)N[C@@H](CC(C)(C)C)C(=O)N[C@@H](C(C)C)P(=O)(Oc1ccccc1)Oc1ccccc1`, the outcome in series [1] was Active. In series [2], the outcome was inactive. Moreover, in [3], the IC50 (commonly the concentration needed to halve the response being measured) came out at 8.1 µM.
Take `CC[C@H](NC(=O)[C@H](CCCCN)NC(=O)[C@H](Cc1ccccc1)NC(=O)CCCCCNC(=O)c1ccc(C(=O)O)c(-c2c3ccc(=O)cc-3oc3cc(O)ccc23)c1)C(=O)N[C@@H](C(C)C)P(=O)(Oc1ccccc1)Oc1ccccc1`: the result in [2] and in [4] was Active. Moreover, in series [5], the Activity entry was “Dose-Dependent Effect”. The IC50 in [3] is 27 µM.
Consider `CC(C)[C@H](NC(=O)C1(NC(=O)[C@H](CCCCN)NC(=O)[C@H](Cc2ccccc2)NC(=O)CCCCCNC(=O)c2ccc(C(=O)O)c(-c3c4ccc(=O)cc-4oc4cc(O)ccc34)c2)CC1)P(=O)(Oc1ccccc1)Oc1ccccc1`, for which the outcome (in series [1]; in [2]; in series [6]; in series [7]; at Trypsin (Homo sapiens)) was inactive.
For `CC(C)[C@H](NC(=O)[C@H](CC(C)(C)C)NC(=O)[C@H](CCCCN)NC(=O)[C@H](Cc1ccccc1)NC(=O)CCCCCNC(=O)c1ccc(C(=O)O)c(-c2c3ccc(=O)cc-3oc3cc(O)ccc23)c1)P(=O)(Oc1ccccc1)Oc1ccccc1`, the outcome in series [2] was inactive.
For `CC(C)C[C@H](NC(=O)[C@H](CCCCN)NC(=O)[C@H](Cc1ccc2ccccc2c1)NC(=O)CCCCCNC(=O)c1ccc(C(=O)O)c(-c2c3ccc(=O)cc-3oc3cc(O)ccc23)c1)C(=O)N[C@@H](CC(C)C)P(=O)(Oc1ccccc1)Oc1ccccc1`, the outcome in [1], in series [6] and in series [7] was Active.
On to `CC(C)C[C@H](NC(=O)CCCCCNC(=O)c1ccc(C(=O)O)c(-c2c3ccc(=O)cc-3oc3cc(O)ccc23)c1)C(=O)N[C@@H](Cc1ccccc1)C(=O)N[C@@H](CC1CC1)C(=O)N[C@@H](C(C)C)P(=O)(Oc1ccccc1)Oc1ccccc1`, for which the outcome in [1] was Active. Besides, the result in series [2] was inactive. Also, the IC50 in series [3] worked out at 5.2 µM. Also, the outcome on Albumin [8] was Active.
With `CC(C)C[C@H](NC(=O)C1(NC(=O)[C@H](CCCCN)NC(=O)[C@H](Cc2ccccc2)NC(=O)CCCCCNC(=O)c2ccc(C(=O)O)c(-c3c4ccc(=O)cc-4oc4cc(O)ccc34)c2)CC1)P(=O)(Oc1ccccc1)Oc1ccccc1`, the outcome (in series [1]; in series [2]; in series [6]; in series [7]; on Trypsin (Homo sapiens)) was inactive.
`CC(C)[C@H](NC(=O)[C@H](CC1CC1)NC(=O)[C@H](CCCCN)NC(=O)[C@H](Cc1ccccc1)NC(=O)CCCCCNC(=O)c1ccc(C(=O)O)c(-c2c3ccc(=O)cc-3oc3cc(O)ccc23)c1)P(=O)(Oc1ccccc1)Oc1ccccc1`: the result (in [1]; at Serine protease HTRA1 [10]; on Serine protease HTRA1 [11]; on Serine protease HTRA1 [13]) was Active. For the same compound, the IC50 was determined as 6.3 µM on Serine protease HTRA1 [9] and 8.3 µM in series [3]. Further, at Albumin [12], the Activity result was “Not Active”.
On to `CC(C)C[C@H](NC(=O)CCCCCNC(=O)c1ccc(C(=O)O)c(-c2c3ccc(=O)cc-3oc3cc(O)ccc23)c1)C(=O)N[C@@H](Cc1ccc2ccccc2c1)C(=O)N[C@@H](CC(C)C)C(=O)N[C@@H](C(C)C)P(=O)(Oc1ccccc1)Oc1ccccc1`, for which the result in [1], in series [6] and in series [7] was Active. The outcome in series [2] was inactive. The half-inhibitory concentration (IC50) in series [3] was found to be 5.4 µM.
Take `NCCc1ccc(S(=O)(=O)F)cc1`: the concentration for half-maximal inhibition (IC50) (at Serine protease HTRA1 [9]; in series [3]) was over 1000 µM throughout. In addition, the inhibition (at Serine protease HTRA1 [14]; in [15]) was 20% throughout.
Consider `CC(C)C[C@H](NC(=O)[C@H](CCCCN)NC(=O)[C@H](Cc1ccc2ccccc2c1)NC(=O)CCCCCNC(=O)c1ccc(C(=O)O)c(-c2c3ccc(=O)cc-3oc3cc(O)ccc23)c1)C(=O)N[C@@H](C(C)C)P(=O)(Oc1ccccc1)Oc1ccccc1`, for which the result in series [1], in series [6] and in series [7] was Active. In series [3], the half-maximal inhibitory concentration (IC50) was 12 µM.
As to `CC(C)C[C@H](NC(=O)CCCCCNC(=O)c1ccc(C(=O)O)c(-c2c3ccc(=O)cc-3oc3cc(O)ccc23)c1)C(=O)N[C@@H](Cc1ccccc1)C(=O)NC1(C(=O)N[C@@H](C(C)C)P(=O)(Oc2ccccc2)Oc2ccccc2)CC1`, the outcome (in series [1]; in [2]; in series [6]; in series [7]; on Trypsin (Homo sapiens)) was inactive.
For `O=C1C(=Cc2ccc(-c3ccccc3[N+](=O)[O-])o2)C(=O)N(c2ccccc2)C(=S)N1c1ccccc1`, the values for the IC50 (on Serine protease HTRA1 [9]; in series [3]) were over 50 µM and 18 µM, respectively.
Regarding `CC(C)C[C@H](NC(=O)[C@H](CCCCN)NC(=O)[C@H](Cc1ccccc1)NC(=O)CCCCCNC(=O)c1ccc(C(=O)O)c(-c2c3ccc(=O)cc-3oc3cc(O)ccc23)c1)C(=O)N[C@@H](C(C)C)P(=O)(Oc1ccccc1)Oc1ccccc1`, in series [2], the outcome was Active. In addition, the half-maximal inhibitory concentration (IC50) in series [3] worked out at 24 µM.
Turning to `CC[C@H](NC(=O)[C@H](CCCCN)NC(=O)[C@H](Cc1ccccc1)NC(=O)CCCCCNC(=O)c1ccc(C(=O)O)c(-c2c3ccc(=O)cc-3oc3cc(O)ccc23)c1)C(=O)N[C@@H](CC(C)C)P(=O)(Oc1ccccc1)Oc1ccccc1`, the outcome in series [2] was inactive.
Regarding `CC(C)C[C@H](NC(=O)CCCCCNC(=O)c1ccc(C(=O)O)c(-c2c3ccc(=O)cc-3oc3cc(O)ccc23)c1)C(=O)N[C@@H](Cc1ccccc1)C(=O)N[C@@H](CC(C)C)C(=O)N[C@@H](C(C)C)P(=O)(Oc1ccccc1)Oc1ccccc1`, the concentration for half-maximal inhibition (IC50) at Serine protease HTRA1 [9] stood at 2 µM; in series [3] it was 7.8 µM. The result on Serine protease HTRA1 [10] and on Serine protease HTRA1 [13] was Active. Further, the Activity entry at Albumin [12] was “Not Active”.
